# Reference: patent US9884823B2, “Oxime ether acetate compound, preparation method therefor and weeding application thereof” (ZHEJIANG UNIVERSITY OF TECHNOLOGY, priority 2014, dated 2018)
# Read-outs that look alike come from different tables or passages of the source.
# Assays:
# Dog point = test: Potted plants live body test; format: in vivo; details: 150 g a.i./ha, 30 days, Table 9
# Description: (§1) The raw drug which was selected from the compounds in table 1 was weighed using an analytical balance (0.0001 g), and dissolved in DMF containing 1 wt % Tween-80 emulsifier to prepare a mother liquor of raw drug with a mass concentration of 1.0˜5.0%, and then diluted with distilled water, to prepare preparations at desired concentrations according to the ratio of ingredients in Examples 8, 9 and 10.
# (§2) The test targets were mustard, small quinoa, Abutilon, amaranthus retroflexus, Eclipta prostrata, crabgrass, dog point. A pot with a diameter of 7.5 cm was used, filled with composite soil (garden soil:nursery matrix, 1:2, v/v) to ¾ of the pot, then the above […] kinds of weeds targets were directly seeded (germination rate ≧85%), covered with soil at a thickness of 0.2 cm. When the weeds grew to 3-leaf stage, pre-emergence soil treatment for weeds planting, and then spraying was performed.
# amaranthus retroflexus = test: Potted plants live body test; format: in vivo; details: 150 g a.i./ha, 30 days, Table 9
# Description: as §1, §2
# Eclipta prostrata = test: Potted plants live body test; format: in vivo; details: 150 g a.i./ha, 30 days, Table 9
# Description: as §1, §2
# Abutilon = test: Potted plants live body test; format: in vivo; details: 150 g a.i./ha, 30 days, Table 9
# Description: as §1, §2
# Crabgrass = test: Potted plants live body test; format: in vivo; details: 150 g a.i./ha, 30 days, Table 9
# Description: as §1, §2
# Cucumber = test: Culture dish method (general screening); format: in vivo; details: 100 mg/L, 7 days
# Description: (§3) Culture dish method (general screening): The test targets were radish, cucumber, rape, wheat, sorghum and barnyard grass; the seeds of wheat, sorghum and radish were germinated in advance, and the uniform emerge-germinating seeds were used in the test.
# Rape = test: Culture dish method (general screening); format: in vivo; details: 100 mg/L, 7 days
# Description: as §3
# Radish = test: Culture dish method (general screening); format: in vivo; details: 100 mg/L, 7 days
# Description: as §3
# [1] = test system: grass weeds such as crabgrass, barnyard grass, dog point; details: 150 g a.i./ha; for activity for grass targets such as crabgrass and dog point: 30 days after administration, Table 9 summary; for activity on grass weeds such as crabgrass, dog point: postemergence spraying, 30 days
# Description: as §1, §2
# [2] = test system: broadleaf weeds such as mustard, small quinoa, Abutilon, Amaranthus retroflexus and Eclipta prostrate; details: 150 g a.i./ha; for herbicidal activity on broadleaf weeds targets: 30 days after administration, Table 9 summary; for activity on the growth of broadleaf weeds: postemergence spraying, 30 days, vs clear water control
# Description: as §1, §2
# Small quinoa = details: 150 g a.i./ha, 30 days, Table 9
# Description: as §1, §2
# Barnyardgrass = test: Culture dish method (general screening); format: in vivo, barnyard grass; details: 100 mg/L, 7 days
# Description: as §3
# Wheat = test: Culture dish method (general screening); format: in vivo; details: 100 mg/L, 7 days
# Description: as §3
# Mustard = details: 150 g a.i./ha, 30 days, Table 9
# Chinese sorghum = test: Culture dish method (general screening); format: in vivo; details: 100 mg/L, 7 days
# Description: as §3
Compound,"efficiency, Dog point (Dog point; Postemergence spraying) [%]","efficiency, Dog point (Dog point; Pre-emergence soil treatment) [%]","efficiency, amaranthus retroflexus (amaranthus retroflexus; Postemergence spraying) [%]","efficiency, amaranthus retroflexus (amaranthus retroflexus; Pre-emergence soil treatment) [%]","efficiency, Eclipta prostrata (Eclipta prostrata; Postemergence spraying) [%]","efficiency, Eclipta prostrata (Eclipta prostrata; Pre-emergence soil treatment) [%]","efficiency, Abutilon (Abutilon; Postemergence spraying) [%]","efficiency, Abutilon (Abutilon; Pre-emergence soil treatment) [%]","efficiency, Crabgrass (Crabgrass; Postemergence spraying) [%]","efficiency, Crabgrass (Crabgrass; Pre-emergence soil treatment) [%]","inhibition rate, Cucumber Root (Cucumber) [%]","inhibition rate, Cucumber Stem (Cucumber) [%]","inhibition rate, Rape Root (Rape) [%]","inhibition rate, Rape Stem (Rape) [%]","inhibition rate, Radish Root (Radish) [%]","inhibition rate, Radish Stem (Radish) [%]",activity for grass targets such as crabgrass and dog point [1],"activity on grass weeds such as crabgrass, dog point [1]",herbicidal activity on broadleaf weeds targets [2],activity on the growth of broadleaf weeds [2],further results
CON=C(C(=O)OC)c1ccccc1COc1ccc(-c2ccc(Cl)cn2)cc1 [Compound 27],0,0,80,50,80,0,60,0,0,0,60,0,50,50,50,20,poor activity,almost have no activity,herbicidal activity,inhibitory activity,"efficiency, Small quinoa (Small quinoa; Postemergence spraying): 60%; efficiency, Small quinoa (Small quinoa; Pre-emergence soil treatment): 25%; inhibition rate, Barnyardgrass Root (Barnyardgrass): 60%; inhibition rate, Barnyardgrass Stem (Barnyardgrass): 30%; inhibition rate, Wheat Root (Wheat): 50%; inhibition rate, Wheat Stem (Wheat): 0%; efficiency, Mustard (Mustard; Postemergence spraying): 80%; efficiency, Mustard (Mustard; Pre-emergence soil treatment): 30%; inhibition rate, Chinese sorghum Root (Chinese sorghum): 50%; inhibition rate, Chinese sorghum Stem (Chinese sorghum): 0%"
CON=C(C(=O)OC)c1ccccc1COc1cccc(-c2ccc(Cl)cn2)c1 [Compound 19],0,0,50,30,50,0,40,0,0,0,90,70,100,100,80,80,poor activity,almost have no activity,herbicidal activity,inhibitory activity,"efficiency, Small quinoa (Small quinoa; Postemergence spraying): 60%; efficiency, Small quinoa (Small quinoa; Pre-emergence soil treatment): 25%; inhibition rate, Barnyardgrass Root (Barnyardgrass): 70%; inhibition rate, Barnyardgrass Stem (Barnyardgrass): 30%; inhibition rate, Wheat Root (Wheat): 30%; inhibition rate, Wheat Stem (Wheat): 0%; efficiency, Mustard (Mustard; Postemergence spraying): 50%; efficiency, Mustard (Mustard; Pre-emergence soil treatment): 0%; inhibition rate, Chinese sorghum Root (Chinese sorghum): 80%; inhibition rate, Chinese sorghum Stem (Chinese sorghum): 30%"
CON=C(C(=O)OC)c1ccccc1COc1cccc(-c2ncccc2C)c1 [Compound 83],0,0,20,20,0,0,30,0,0,0,80,30,80,50,50,50,poor activity,almost have no activity,herbicidal activity,inhibitory activity,"efficiency, Small quinoa (Small quinoa; Postemergence spraying): 50%; efficiency, Small quinoa (Small quinoa; Pre-emergence soil treatment): 30%; inhibition rate, Barnyardgrass Root (Barnyardgrass): 80%; inhibition rate, Barnyardgrass Stem (Barnyardgrass): 0%; inhibition rate, Wheat Root (Wheat): 60%; inhibition rate, Wheat Stem (Wheat): 20%; efficiency, Mustard (Mustard; Postemergence spraying): 0%; efficiency, Mustard (Mustard; Pre-emergence soil treatment): 0%; inhibition rate, Chinese sorghum Root (Chinese sorghum): 80%; inhibition rate, Chinese sorghum Stem (Chinese sorghum): 30%"
CON=C(C(=O)OC)c1ccccc1COc1cc(-c2ccccn2)ccc1C(F)(F)F [Compound 112],0,0,80,50,60,0,50,0,0,0,50,80,50,80,50,80,poor activity,almost have no activity,herbicidal activity,inhibitory activity,"efficiency, Small quinoa (Small quinoa; Postemergence spraying): 75%; efficiency, Small quinoa (Small quinoa; Pre-emergence soil treatment): 45%; inhibition rate, Barnyardgrass Root (Barnyardgrass): 0%; inhibition rate, Barnyardgrass Stem (Barnyardgrass): 0%; inhibition rate, Wheat Root (Wheat): 0%; inhibition rate, Wheat Stem (Wheat): 0%; efficiency, Mustard (Mustard; Postemergence spraying): 100%; efficiency, Mustard (Mustard; Pre-emergence soil treatment): 50%; inhibition rate, Chinese sorghum Root (Chinese sorghum): 0%; inhibition rate, Chinese sorghum Stem (Chinese sorghum): 0%"
CON=C(C(=O)OC)c1ccccc1COc1cccc(-c2nc(Cl)c(Cl)cc2Cl)c1 [Compound 99],0,0,40,0,25,0,20,0,0,0,70,0,60,30,60,50,poor activity,almost have no activity,herbicidal activity,inhibitory activity,"efficiency, Small quinoa (Small quinoa; Postemergence spraying): 50%; efficiency, Small quinoa (Small quinoa; Pre-emergence soil treatment): 30%; inhibition rate, Barnyardgrass Root (Barnyardgrass): 50%; inhibition rate, Barnyardgrass Stem (Barnyardgrass): 0%; inhibition rate, Wheat Root (Wheat): 30%; inhibition rate, Wheat Stem (Wheat): 0%; efficiency, Mustard (Mustard; Postemergence spraying): 60%; efficiency, Mustard (Mustard; Pre-emergence soil treatment): 0%; inhibition rate, Chinese sorghum Root (Chinese sorghum): 50%; inhibition rate, Chinese sorghum Stem (Chinese sorghum): 50%"
